We go through four compounds from ChEMBL document CHEMBL4130615, “Evaluation of Diarylheptanoid-Terpene Adduct Enantiomers from Alpinia officinarum for Neuroprotective Activities” (J Nat Prod, 2018).

Activity calls are given as the source filed them. No cut-off for these calls is given here.

Assay [1] relates to Cortical neurone. Kind of assay: Neuroprotective activity against MPP+-induced cell death in Sprague-Dawley rat cortical neurons assessed as increase in cell viability at 4 to 32 uM pretreated for 12 hrs followed by MPP+ challenge measured after 20 hrs by MTT assay. The class given is functional, cell-based.
The subject of assay [2] is Cortical neurone. Briefly: Neuroprotective activity against MPP+-induced cell death in Sprague-Dawley rat cortical neurons assessed as increase in cell viability at 16 uM pretreated for 12 hrs followed by MPP+ challenge measured after 20 hrs by MTT assay. The class given is functional, cell-based. In general terms: Tetrazolium dyes change colour on reduction, which living cells bring about.

Turning to `C=CC(=C)CCC=C(C)C`, the result in the assay on Cortical neurone [1] was inactive.

Take `COc1cc(CC/C=C/C(=O)CCc2ccccc2)ccc1O`: the result with Cortical neurone [1] was inactive. In the case of `COc1cc(CC[C@H]2CC=C(CCC=C(C)C)C[C@@H]2C(=O)CCc2ccccc2)ccc1O`, the outcome in the assay with Cortical neurone [2] was Active.

In the case of `COc1cc(CC[C@@H]2CC=C(CCC=C(C)C)C[C@H]2C(=O)CCc2ccccc2)ccc1O`, the result with Cortical neurone [1] was inactive.
